Assay results reported in patent US20120065198A2, “Detection and Treatment of Schizophrenia” (Tokai University Educational System, priority 2007, published 2012).

Key:
[1] = tested on: pentosidine formation; assay: Inhibitory effects of phenylene derivatives (II) on AGEs (pentosidine) formation; assay type: biochemical; parameters: AGE Formation Inhibition Ratio (%): concentration or dose not given beside the values; conditions: same method used in Test Example 1
Method: (§1) Plasma was collected from hemodialysis patients prior to dialysis with the patients' consent, and the plasma was filtered and sterilized. To the plasma (450 μL) was added solutions of TM-2002 in dimethylsulfoxide (50 μL) (final concentrations: 0.8, 2.0, and 5.0 mM), and the mixtures were incubated for 1 week at 37° C. The levels of the pentosidine formation were measured.
Pentosidine was measured as follows. To each sample (50 μL) after incubation was added an equal volume of 10% trichloroacetic acid, and the mixture was subsequently centrifuged at 5,000 g for 5 minutes. After the supernatant was removed, the pellet was washed with 5% trichloroacetic acid (300 μL). The pellet was dried under reduced pressure, and subsequently hydrolyzed in a 6N HCl solution (100 μL) under a nitrogen atmosphere for 16 hours at 110° C. To the acid hydrolysate was then added 5N NaOH (100 μL) and 0.5 M phosphate buffer (pH 7.4) (200 μL); the mixture was subsequently filtered through a micropore filter with 0.5 μm pores and diluted with PBS. The concentration of the released pentosidine was measured by reverse-phase HPLC using a fluorescence detector (RF-10A, Shimadzu Corporation) (Miyata, T. et al.; Proc. Natl. Acad. Sci. USA, Vol. 93, p. 2353-2358, 1996). The effluent was monitored at the excitation/emission wavelength of 335/385 nm. Synthetic pentosidine was used as the reference material. The detection limit of pentosidine was 0.1 pmol/mg protein. […]

[2] = tested on: pentosidine formation; assay: Inhibitory activity on pentosidine formation, samples incubated with BSA and arabinose; assay type: biochemical; conditions: incubated with BSA and arabinose instead of patient plasma; for Pentosidine Formation Ratio (%) at 5 Concentration: Table 13
Method: as §1
Pentosidine was measured as follows. To each sample (50 μL) after incubation was added an equal volume of 10% trichloroacetic acid, and the mixture was subsequently centrifuged at 5,000 g for 5 minutes. After the supernatant was removed, the pellet was washed with 5% trichloroacetic acid (300 μL). The pellet was dried under reduced pressure, and subsequently hydrolyzed in a 6N HCl solution (100 μL) under a nitrogen atmosphere for 16 hours at 110° C. To the acid hydrolysate was then added 5N NaOH (100 μL) and 0.5 M phosphate buffer (pH 7.4) (200 μL); the mixture was subsequently filtered through a micropore filter with 0.5 μm pores and diluted with PBS. The concentration of the released pentosidine was measured by reverse-phase HPLC using a fluorescence detector (RF-10A, Shimadzu Corporation) (Miyata, T. et al.; Proc. Natl. Acad. Sci. USA, Vol. 93, p. 2353-2358, 1996). The effluent was monitored at the excitation/emission wavelength of 335/385 nm. Synthetic pentosidine was used as the reference material. The detection limit of pentosidine was 0.1 pmol/mg protein.
(2) Other edaravone analogues (Compounds (1) or (2)) were investigated for their inhibitory activities on pentosidine formation in the same manner as in Section (1) above, except that the samples were incubated with BSA and arabinose instead of the patient plasma. In the tables, “-” means that the test was not conducted.

SMILES	AGE Formation Inhibition Ratio (%) [1] [%]	Pentosidine Formation Ratio (%) [1] [%]	Pentosidine Formation Ratio (%) at 5 mM Drug Concentration [2] [%]	Pentosidine Formation Ratio (%) at 5 Concentration [2] [%]
O=C1NC(=O)C(c2ccc(CN(c3cccc(C(=O)O)c3)S(=O)(=O)c3ccccc3)cc2)S1 (stereo not drawn) [(II-22)]	85	15	–	–
O=C1NC(=O)C(c2ccc(CN(C(=O)c3ccc(-c4ccccc4)cc3)c3cccc(C(=O)O)c3)cc2)S1 (stereo not drawn) [(II-21)]	98	2	–	–
O=C(NC1=NN(c2ccccc2)C(=O)C1(O)S(=O)(=O)[O-])c1ccccc1.[Na+] (stereo not drawn) [compound 27, Sodium 3-benzoylamino-4-hydroxy-5-oxo-1-phenyl-4,5-dihydro-1H-pyrazole-4-sulfonate]	–	–	2.83	–
CC1=NN(c2ccc(F)cc2)C(=O)/C1=C\c1c(C)nn(-c2ccccc2C)c1O [compound 46, 2-(4-fluoro-phenyl)-4-(5-hydroxy-3-methyl-1-o-toluyl-1H-pyrazol-4-ylmethylene)-5-methyl-2,4-dihydro-pyrazol-3-one]	–	–	15.69	–
CC1=NN(c2ccccc2)C(=O)/C1=C/c1ccc(OCc2ccccc2)cc1 [compound 72, 4-(4-benzyloxy-benzylidene)-5-methyl-2-phenyl-2,4-dihydropyrazol-3-one]	–	–	–	7.63
CC(=O)c1ccc(N2N=C(C)/C(=C3\C(=O)Nc4ccccc43)C2=O)cc1 [compound 45, 3-[1-(4-acetyl-phenyl)-3-methyl-5-oxo-1,5-dihydro-pyrazol-4-ylidene]-1,3-dihydro-indol-2-one]	–	–	19.22	–
Cc1ncc2c(c1O)C(c1c(C)nn(-c3ccccc3)c1O)OC2 (stereo not drawn) [compound 68]	–	–	2.82	–
CC1=NN(c2ccccc2)C(=O)/C1=C/c1ccc(Cl)cc1 [compound 67]	–	–	9.09	–
CC1=NN(c2cccc(C(=O)O)c2)C(=O)/C1=C\c1ccc(N2CCC(Cl)=N2)cc1 [compound 36, 3-{4-[4-(3-chloro-4,5-dihydro-pyrazol-1-yl)-benzylidene]-3-methyl-5-oxo-4,5-dihydro-pyrazol-1-yl}-benzoic acid]	–	–	26.37	–
O=C1NC(=O)C(c2ccc(CN(c3cccc(C(=O)O)c3)S(=O)(=O)c3ccc4ccccc4c3)cc2)S1 (stereo not drawn) [(II-25)]	99	1	–	–
COc1ccc(-c2csc(SC3C(=O)N(c4ccccc4)N=C3C)n2)cc1 (stereo not drawn) [compound 19]	–	–	40.19	–
CC1=NN(c2ccc(F)cc2)C(=O)C1C(c1ccccc1O)c1c(C)nn(-c2ccc(F)cc2)c1O (stereo not drawn) [compound 22, 2-(4-fluoro-phenyl)-4-[[1-(4-fluoro-phenyl)-5-hydroxy-3-methyl-1H-pyrazol-4-yl]-(2-hydroxy-phenyl)-methyl]-5-methyl-2,4-dihydro-pyrazol-3-one]	–	–	2.9	–
O=C(O)c1cccc(N(CCc2ccccc2)Cc2ccc(-c3ccccc3-c3nnn[nH]3)cc2)c1 [(II-32)]	81	19	–	–
CCCC1=NN(c2ccccc2)C(=O)C1CC(=O)c1ccccc1 (stereo not drawn) [compound 20]	–	–	83.12	–
CC1=NN(c2cccc(Cl)c2)C(=O)/C1=C/c1ccc(O)cc1 [compound 71, 2-(3-chloro-phenyl)-4-(4-hydroxy-benzylidene)-5-methyl-2,4-dihydropyrazol-3-one]	–	–	–	4.63
CCCCCN(Cc1ccc(C2SC(=O)NC2=O)cc1)c1cccc(C(=O)O)c1 (stereo not drawn) [(II-6)]	80	20	–	–
O=C1NC(=O)C(c2ccc(CN3C(=O)C4(CC4)Cc4ccc(C(=O)O)cc43)cc2)S1 (stereo not drawn) [(II-30)]	87	13	–	–
O=C1NC(=O)C(c2ccc(Cn3c(-c4ccccn4)nc4ccccc43)cc2)S1 (stereo not drawn) [(II-15)]	80	20	–	–
O=C1NC(=O)C(c2ccc(CN(Cc3ccc(-c4ccccc4)cc3)c3cccc(C(=O)O)c3)cc2)S1 (stereo not drawn) [(II-68)]	80	20	–	–

SMILES	AGE Formation Inhibition Ratio (%) [1] [%]	Pentosidine Formation Ratio (%) [1] [%]	Pentosidine Formation Ratio (%) at 5 mM Drug Concentration [2] [%]	Pentosidine Formation Ratio (%) at 5 Concentration [2] [%]
O=C1NC(=O)C(c2ccc(Cn3ccnc3-c3ccccc3)cc2)S1 (stereo not drawn) [(II-16)]	85	15	–	–
O=C1NC(=O)C(c2ccc(CN(c3cccc(C(=O)O)c3)S(=O)(=O)c3ccc(-c4ccccc4)cc3)cc2)S1 (stereo not drawn) [(II-24)]	91	9	–	–
O=C(O)c1cccc(N(CC(=O)c2ccccc2)Cc2ccc(-c3ccccc3-c3nnn[nH]3)cc2)c1 [(II-42)]	93	7	–	–
O=C1NC(=O)C(c2ccc(CN(C(=O)CCc3ccccc3)c3cccc(C(=O)O)c3)cc2)S1 (stereo not drawn) [(II-20)]	92	8	–	–
O=C(O)c1cccc(N(Cc2ccc(-c3ccccc3-c3nnn[nH]3)cc2)C(=O)CCc2ccccc2)c1 [(II-1)]	80	20	–	–
Cc1ccc(S(=O)(=O)N(Cc2ccc(C3SC(=O)NC3=O)cc2)c2cccc(C(=O)O)c2)cc1 (stereo not drawn) [(II-23)]	90	10	–	–
CCCCS(=O)(=O)N(Cc1ccc(C2SC(=O)NC2=O)cc1)c1cccc(C(=O)O)c1 (stereo not drawn) [(II-11)]	89	11	–	–
CCCC1CCc2ccc(C(=O)O)cc2N(Cc2ccc(C3SC(=O)NC3=O)cc2)C1=O (stereo not drawn) [(II-28)]	84	16	–	–
CS(=O)(=O)N(Cc1ccc(C2SC(=O)NC2=O)cc1)c1ccccc1 (stereo not drawn) [(II-8)]	81	19	–	–
O=C1NC(=O)C(c2ccc(CN(C(=O)C3CCCCC3)c3cccc(C(=O)O)c3)cc2)S1 (stereo not drawn) [(II-18)]	85	15	–	–
O=C1NC(=O)C(c2ccc(CN(C(=O)c3cccnc3)c3cccc(C(=O)O)c3)cc2)S1 (stereo not drawn) [(II-19)]	80	20	–	–
CC1(C)Cc2ccc(C(=O)O)cc2N(Cc2ccc(C3SC(=O)NC3=O)cc2)C1=O (stereo not drawn) [(II-29)]	86	14	–	–
Cc1nc(-c2ccc(S(=O)(=O)N(Cc3ccc(C4SC(=O)NC4=O)cc3)c3cccc(C(=O)O)c3)cc2)cs1 (stereo not drawn) [(II-63)]	80	20	–	–
CCCc1cc2ccc(C(=O)O)cc2n(Cc2ccc(C3SC(=O)NC3=O)cc2)c1=O (stereo not drawn) [(II-17)]	84	16	–	–
CC1CCc2ccc(C(=O)O)cc2N1Cc1ccc(C2SC(=O)NC2=O)cc1 (stereo not drawn) [(II-7)]	87	13	–	–
CCCCS(=O)(=O)N(Cc1ccc(C2SC(=O)NC2=O)cc1)c1ccccc1 (stereo not drawn) [(II-9)]	80	20	–	–
Cc1oc(-c2ccccc2)nc1CC(=O)N(Cc1ccc(C2SC(=O)NC2=O)cc1)c1cccc(C(=O)O)c1 (stereo not drawn) [(II-33)]	82	18	–	–
CS(=O)(=O)N(Cc1ccc(C2SC(=O)NC2=O)cc1)c1cccc(C(=O)O)c1 (stereo not drawn) [(II-10)]	86	14	–	–
